# How the values were obtained:
# [1] = molecular target: Somatostatin receptor type 3 (Homo sapiens) (UniProt P32745); experiment: Somatostatin sst3 Eurofins-Panlabs radioligand binding assay; settings: Compound concentration 10.0 uM
# [2] = molecular target: Alpha-2C adrenergic receptor (Homo sapiens) (UniProt P18825); experiment: Adrenergic alpha2C Eurofins-Panlabs radioligand binding assay; parameters: ligand concentration 1 nM, non-specific ligand with concentration 10 µM WB-4101, incubation time 60 min, incubation temperature 25 °C; settings: Compound concentration 10.0 uM
# Chain of Alpha-2C adrenergic receptor (Homo sapiens) (P18825 whole entry): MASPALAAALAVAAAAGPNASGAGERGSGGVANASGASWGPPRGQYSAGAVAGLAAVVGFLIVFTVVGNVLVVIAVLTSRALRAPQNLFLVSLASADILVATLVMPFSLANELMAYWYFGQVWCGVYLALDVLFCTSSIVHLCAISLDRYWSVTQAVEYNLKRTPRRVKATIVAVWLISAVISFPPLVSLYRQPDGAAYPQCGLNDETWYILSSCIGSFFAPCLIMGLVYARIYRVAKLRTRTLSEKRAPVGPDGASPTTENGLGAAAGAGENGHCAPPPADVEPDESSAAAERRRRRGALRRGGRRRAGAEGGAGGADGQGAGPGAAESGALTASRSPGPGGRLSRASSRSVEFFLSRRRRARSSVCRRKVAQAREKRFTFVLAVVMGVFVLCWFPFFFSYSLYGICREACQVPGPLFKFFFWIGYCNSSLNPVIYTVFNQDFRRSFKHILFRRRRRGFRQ
# Rattus norvegicus [3] = species on record: Rattus norvegicus; experiment: Inhibition of Glycine, Strychnine-Sensitive at 10 µM in the Eurofins-Panlabs radioligand binding assay (Eurofins_assay_239000); settings: Compound concentration 10.0 uM
# [4] = molecular target: 5-hydroxytryptamine receptor 6 (Homo sapiens) (UniProt P50406); experiment: Inhibition of Serotonin (5-Hydroxytryptamine) 5-HT6 at 10 µM in the Eurofins-Panlabs radioligand binding assay (Eurofins_assay_272200); settings: Compound concentration 10.0 uM
# Homo sapiens [5] = species on record: Homo sapiens; settings: Compound concentration 10.0 uM
# [6] = molecular target: Cathepsin G (Homo sapiens) (UniProt P08311); experiment: Inhibition of Peptidase, CTSG (Cathepsin G) at 10 µM in the Eurofins-Panlabs enzyme assay (Eurofins_assay_112510); parameters: substrate with concentration; settings: Compound concentration 10.0 uM
# Chain of Cathepsin G (Homo sapiens) (P08311 whole entry): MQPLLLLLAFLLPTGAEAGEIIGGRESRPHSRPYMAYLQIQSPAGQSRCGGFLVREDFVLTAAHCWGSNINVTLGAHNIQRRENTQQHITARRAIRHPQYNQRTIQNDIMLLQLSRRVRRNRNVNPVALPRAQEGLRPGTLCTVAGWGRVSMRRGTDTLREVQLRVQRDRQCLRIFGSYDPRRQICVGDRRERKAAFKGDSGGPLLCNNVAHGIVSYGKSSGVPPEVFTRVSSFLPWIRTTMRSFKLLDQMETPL
# [7] = molecular target: Tyrosine-protein phosphatase non-receptor type 1 (Homo sapiens) (UniProt P18031); experiment: Protein Tyrosine Phosphatase, PTPN1 (PTP1B) Eurofins-Panlabs enzyme assay; parameters: substrate with concentration; settings: Compound concentration 10.0 uM
# Chain of Tyrosine-protein phosphatase non-receptor type 1 (Homo sapiens) (P18031 whole entry): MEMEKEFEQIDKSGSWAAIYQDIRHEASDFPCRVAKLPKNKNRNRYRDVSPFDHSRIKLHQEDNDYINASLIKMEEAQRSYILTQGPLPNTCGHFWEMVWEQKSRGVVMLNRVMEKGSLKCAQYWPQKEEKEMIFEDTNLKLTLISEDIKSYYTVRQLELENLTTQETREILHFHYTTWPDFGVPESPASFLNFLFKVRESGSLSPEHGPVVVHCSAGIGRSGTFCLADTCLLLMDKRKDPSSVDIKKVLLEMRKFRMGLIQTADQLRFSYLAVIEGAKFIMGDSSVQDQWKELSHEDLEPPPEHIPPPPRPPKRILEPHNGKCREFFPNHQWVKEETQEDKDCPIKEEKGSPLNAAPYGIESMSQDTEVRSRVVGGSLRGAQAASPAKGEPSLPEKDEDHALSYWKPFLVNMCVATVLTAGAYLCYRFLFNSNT
# [8] = molecular target: Muscarinic acetylcholine receptor M2 (Homo sapiens) (UniProt P08172); settings: Compound concentration 10.0 uM
# Chain of Muscarinic acetylcholine receptor M2 (Homo sapiens) (P08172 whole entry): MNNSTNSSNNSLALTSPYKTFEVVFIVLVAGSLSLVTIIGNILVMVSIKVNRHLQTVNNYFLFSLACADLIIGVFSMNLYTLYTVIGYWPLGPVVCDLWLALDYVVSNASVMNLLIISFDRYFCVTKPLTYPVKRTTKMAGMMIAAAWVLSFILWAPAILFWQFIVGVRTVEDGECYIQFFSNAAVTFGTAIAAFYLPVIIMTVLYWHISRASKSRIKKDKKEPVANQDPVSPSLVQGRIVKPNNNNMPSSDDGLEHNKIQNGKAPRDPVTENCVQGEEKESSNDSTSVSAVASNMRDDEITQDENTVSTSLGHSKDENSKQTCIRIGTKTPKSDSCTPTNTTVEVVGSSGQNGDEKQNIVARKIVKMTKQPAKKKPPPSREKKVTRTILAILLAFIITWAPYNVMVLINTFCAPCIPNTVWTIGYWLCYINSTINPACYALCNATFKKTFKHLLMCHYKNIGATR
# [9] = molecular target: voltage-gated sodium channel, site 2 (Rattus norvegicus, UniProt F1LQQ7+O08562+O88420+O88457+P04774+P04775+P08104+P15389+P15390+Q62968); experiment: Inhibition of Sodium Channel, Site 2 at 10 µM in the Eurofins-Panlabs radioligand binding assay (Eurofins_assay_279510); assay type: protein assay; parameters: ligand concentration 5 nM, non-specific ligand with concentration 100 µM Veratridine, incubation time 60 min, incubation temperature 37 °C; settings: male, Wistar, rat whole brain (except cerebellum) membranes, probe [3H] Batrachotoxinin (radioligand, 5 nM), compound concentration 10 uM
# Rattus norvegicus [10] = species on record: Rattus norvegicus; experiment: Potassium Channel [SKCA] Eurofins-Panlabs radioligand binding assay; parameters: ligand concentration 0.005 nM; settings: Compound concentration 10.0 uM
# [11] = molecular target: Cannabinoid receptor 1 (Homo sapiens) (UniProt P21554); experiment: Cannabinoid CB1 Eurofins-Panlabs radioligand binding assay; settings: Compound concentration 10.0 uM
# Chain of Cannabinoid receptor 1 (Homo sapiens) (P21554 whole entry): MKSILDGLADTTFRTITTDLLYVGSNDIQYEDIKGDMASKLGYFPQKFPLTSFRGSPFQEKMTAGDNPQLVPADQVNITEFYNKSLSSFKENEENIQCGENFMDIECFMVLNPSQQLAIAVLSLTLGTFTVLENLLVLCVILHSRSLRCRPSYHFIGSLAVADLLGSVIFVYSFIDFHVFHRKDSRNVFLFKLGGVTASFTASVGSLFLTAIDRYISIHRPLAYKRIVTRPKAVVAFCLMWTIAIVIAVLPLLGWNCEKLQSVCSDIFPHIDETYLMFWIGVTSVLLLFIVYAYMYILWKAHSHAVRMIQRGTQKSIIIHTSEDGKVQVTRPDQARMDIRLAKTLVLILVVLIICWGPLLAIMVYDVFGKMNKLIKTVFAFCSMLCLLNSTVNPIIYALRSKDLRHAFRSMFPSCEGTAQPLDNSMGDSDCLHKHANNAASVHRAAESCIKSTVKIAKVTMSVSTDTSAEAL
# [12] = molecular target: Kappa-type opioid receptor (Homo sapiens) (UniProt P41145); settings: Compound concentration 10.0 uM
# Chain of Kappa-type opioid receptor (Homo sapiens) (P41145 whole entry): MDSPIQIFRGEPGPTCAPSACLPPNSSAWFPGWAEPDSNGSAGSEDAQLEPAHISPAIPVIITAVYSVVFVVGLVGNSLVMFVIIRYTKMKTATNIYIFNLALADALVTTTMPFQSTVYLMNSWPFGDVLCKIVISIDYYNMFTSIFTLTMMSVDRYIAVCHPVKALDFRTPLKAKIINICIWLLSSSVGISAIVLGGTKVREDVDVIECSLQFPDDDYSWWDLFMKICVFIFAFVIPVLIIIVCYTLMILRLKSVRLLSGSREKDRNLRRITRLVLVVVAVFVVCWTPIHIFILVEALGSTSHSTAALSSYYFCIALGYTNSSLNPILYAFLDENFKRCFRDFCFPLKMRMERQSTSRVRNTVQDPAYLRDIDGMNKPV
# [13] = molecular target: Melatonin receptor (Gallus gallus) (UniProt P49288+P51050+P49285); experiment: Melatonin MT, Non-Selective Eurofins-Panlabs radioligand binding assay; assay type: protein assay; settings: Compound concentration 10.0 uM
# [14] = molecular target: 5-hydroxytryptamine receptor 7 (Homo sapiens, UniProt P34969); experiment: GPCRScan assay: inhibition of 5-HT7A; parameters: radioligand conc. used [nm] 5.0 – 6.0, parental cells Stable HEK
# [15] = molecular target: Substance-K receptor (Homo sapiens) (UniProt P21452); experiment: Inhibition of Tachykinin NK2 at 10 µM in the Eurofins-Panlabs radioligand binding assay (Eurofins_assay_255600); parameters: ligand concentration 0.5 nM; settings: Compound concentration 10.0 uM
# [16] = molecular target: Sodium-dependent noradrenaline transporter (Homo sapiens) (UniProt P23975); settings: Compound concentration 10.0 uM
# Caspase-7 (Homo sapiens) = Caspase-7 (Homo sapiens) (UniProt P55210); experiment: Peptidase, CASP7 (Caspase 7) Eurofins-Panlabs enzyme assay; settings: Compound concentration 10.0 uM
# Chain of Caspase-7 (Homo sapiens) (P55210 24-198 limits assumed): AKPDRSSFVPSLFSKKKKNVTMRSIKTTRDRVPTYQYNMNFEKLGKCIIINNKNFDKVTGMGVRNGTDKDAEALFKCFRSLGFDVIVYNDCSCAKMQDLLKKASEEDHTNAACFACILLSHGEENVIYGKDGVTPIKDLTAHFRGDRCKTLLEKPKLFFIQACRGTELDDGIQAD
# Chain of Caspase-7 (Homo sapiens) (P55210 207-303 limits assumed): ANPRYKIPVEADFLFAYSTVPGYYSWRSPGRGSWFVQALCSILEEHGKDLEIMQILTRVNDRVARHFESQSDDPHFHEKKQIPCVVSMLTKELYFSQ
# [17] = molecular target: T1, Muscarinic acetylcholine receptor M1 (Homo sapiens) (UniProt P11229); settings: Compound concentration 10.0 uM
# T1 sequence (whole entry): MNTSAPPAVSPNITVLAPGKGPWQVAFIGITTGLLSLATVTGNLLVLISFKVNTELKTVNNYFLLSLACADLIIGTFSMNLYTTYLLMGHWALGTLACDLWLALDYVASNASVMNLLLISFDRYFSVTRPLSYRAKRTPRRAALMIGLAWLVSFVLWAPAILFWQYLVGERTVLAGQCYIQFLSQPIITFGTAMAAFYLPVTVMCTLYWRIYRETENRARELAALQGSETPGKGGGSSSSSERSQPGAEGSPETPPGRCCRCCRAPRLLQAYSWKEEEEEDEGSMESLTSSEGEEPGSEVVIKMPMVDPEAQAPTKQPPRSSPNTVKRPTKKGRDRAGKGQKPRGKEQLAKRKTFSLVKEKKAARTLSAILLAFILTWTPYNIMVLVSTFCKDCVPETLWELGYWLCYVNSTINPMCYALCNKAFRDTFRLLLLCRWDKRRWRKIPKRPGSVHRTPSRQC
# [18] = molecular target: Prostacyclin receptor (Homo sapiens) (UniProt P43119); experiment: Prostanoid IP Eurofins-Panlabs radioligand binding assay; parameters: ligand concentration 5 nM; settings: Compound concentration 10.0 uM
# Homo sapiens [19] = species on record: Homo sapiens; experiment: Cholecystokinin CCK2 (CCKB) Eurofins-Panlabs radioligand binding assay; parameters: ligand concentration 0.072 nM, non-specific ligand with concentration 1 µM Sincalide, incubation time 3 h, incubation temperature 25 °C; settings: Compound concentration 10.0 uM
# Homo sapiens [20] = species on record: Homo sapiens; experiment: Inhibition of Phosphodiesterase PDE4 at compound concentration of 10.0 uM in the Eurofins-Panlabs enzyme assay (Eurofins_assay_154000); assay type: protein assay; parameters: substrate with concentration 1.01 uM [3 H]cAMP + cAMP, incubation time 20 min, incubation temperature 25 C; settings: Compound concentration […]
# [21] = molecular target: Polyunsaturated fatty acid 5-lipoxygenase (Homo sapiens) (UniProt P09917); experiment: Lipoxygenase 5-LO Eurofins-Panlabs enzyme assay; settings: Compound concentration 10.0 uM
# [22] = molecular target: Glutamate NMDA receptor (Rattus norvegicus) (UniProt P35439+Q00959+Q00960+Q00961+Q62645+Q8VHN2+Q9R1M7); settings: Compound concentration 10.0 uM
# [23] = molecular target: Muscarinic acetylcholine receptor M2 (Homo sapiens) (UniProt P08172); settings: Compound concentration 10.0 uM; remark: listed apart in the source
# Homo sapiens [24] = species on record: Homo sapiens; experiment: Prostanoid, Thromboxane A2 (TP) Eurofins-Panlabs radioligand binding assay; parameters: ligand concentration 5 nM, non-specific ligand with concentration 1 µM SQ-29548, incubation time 30 min, incubation temperature 25 °C; settings: Compound concentration 10.0 uM
# [25] = molecular target: Macrophage metalloelastase (Homo sapiens) (UniProt P39900); experiment: Peptidase, Matrix Metalloproteinase-12 (MMP-12) Eurofins-Panlabs enzyme assay; settings: Compound concentration 10.0 uM
# [26] = molecular target: Phosphodiesterase PDE1 (Bos taurus) (UniProt Q01061+P14100+A0A3Q1MCV4); experiment: Phosphodiesterase PDE1 Eurofins-Panlabs enzyme assay; assay type: protein assay; parameters: substrate with concentration [3H] cAMP + cAMP, incubation time 20 min, incubation temperature 25 °C; settings: Compound concentration 100.0 uM
# [27] = molecular target: Prostaglandin E2 receptor EP4 subtype (Homo sapiens) (UniProt P35408); experiment: Prostanoid EP4 Eurofins-Panlabs radioligand binding assay; parameters: ligand concentration 0.5 nM; settings: Compound concentration 10.0 uM
# Rattus norvegicus [28] = species on record: Rattus norvegicus; experiment: Protein Serine/Threonine Kinase, PKC, Non-Selective Eurofins-Panlabs enzyme assay; settings: Compound concentration 10.0 uM
# [29] = molecular target: Cannabinoid receptor 2 (Homo sapiens) (UniProt P34972); settings: Compound concentration 10.0 uM
# [30] = molecular target: Epidermal growth factor receptor (Homo sapiens) (UniProt P00533); experiment: Inhibition of Epidermal Growth Factor (EGF) at 10 µM in the Eurofins-Panlabs radioligand binding assay (Eurofins_assay_225510); settings: Compound concentration 10.0 uM
# Chain of Epidermal growth factor receptor (Homo sapiens) (P00533 whole entry): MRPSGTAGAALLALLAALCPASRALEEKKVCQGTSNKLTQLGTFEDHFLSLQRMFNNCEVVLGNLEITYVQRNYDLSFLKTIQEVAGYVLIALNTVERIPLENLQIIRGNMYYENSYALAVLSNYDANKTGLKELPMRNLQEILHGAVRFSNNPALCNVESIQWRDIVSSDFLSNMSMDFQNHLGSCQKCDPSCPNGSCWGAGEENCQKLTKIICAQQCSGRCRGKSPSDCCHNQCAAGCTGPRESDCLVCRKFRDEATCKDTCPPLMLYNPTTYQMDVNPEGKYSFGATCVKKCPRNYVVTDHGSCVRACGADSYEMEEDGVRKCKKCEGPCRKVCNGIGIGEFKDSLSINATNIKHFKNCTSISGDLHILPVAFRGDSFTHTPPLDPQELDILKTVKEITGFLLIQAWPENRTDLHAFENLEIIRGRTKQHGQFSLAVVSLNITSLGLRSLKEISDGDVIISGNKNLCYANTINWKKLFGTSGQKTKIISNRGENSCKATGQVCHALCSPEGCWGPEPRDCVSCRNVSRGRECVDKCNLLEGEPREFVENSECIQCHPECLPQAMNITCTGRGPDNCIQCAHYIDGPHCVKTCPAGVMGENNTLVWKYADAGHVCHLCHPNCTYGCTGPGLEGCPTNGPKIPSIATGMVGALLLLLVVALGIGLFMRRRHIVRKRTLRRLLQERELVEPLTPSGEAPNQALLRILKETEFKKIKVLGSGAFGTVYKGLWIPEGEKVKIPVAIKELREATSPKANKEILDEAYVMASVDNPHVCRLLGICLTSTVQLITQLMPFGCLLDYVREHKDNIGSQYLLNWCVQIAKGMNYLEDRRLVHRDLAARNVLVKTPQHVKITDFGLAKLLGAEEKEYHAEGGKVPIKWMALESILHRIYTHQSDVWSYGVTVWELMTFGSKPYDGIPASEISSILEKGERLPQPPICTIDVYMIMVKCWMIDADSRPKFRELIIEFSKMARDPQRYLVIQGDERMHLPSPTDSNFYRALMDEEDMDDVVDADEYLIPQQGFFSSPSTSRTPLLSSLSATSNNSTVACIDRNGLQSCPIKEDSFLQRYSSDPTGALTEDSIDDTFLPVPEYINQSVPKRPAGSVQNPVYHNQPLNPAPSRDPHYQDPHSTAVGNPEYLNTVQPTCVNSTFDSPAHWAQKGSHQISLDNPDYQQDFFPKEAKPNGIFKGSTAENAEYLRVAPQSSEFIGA
# [31] = molecular target: B1 bradykinin receptor (Homo sapiens) (UniProt P46663); experiment: Bradykinin B1 Eurofins-Panlabs radioligand binding assay; settings: Compound concentration 10.0 uM
# [32] = molecular target: Vascular endothelial growth factor receptor 1 (Homo sapiens) (UniProt P17948); experiment: Protein Tyrosine Kinase, FLT1 (VEGFR-1) Eurofins-Panlabs enzyme assay; settings: Compound concentration 10.0 uM
# Caspase-3 (Homo sapiens) = Caspase-3 (Homo sapiens) (UniProt P42574); experiment: Peptidase, CASP3 (Caspase 3) Eurofins-Panlabs enzyme assay; settings: Compound concentration 10.0 uM
# Chain of Caspase-3 (Homo sapiens) (P42574 29-175 limits assumed): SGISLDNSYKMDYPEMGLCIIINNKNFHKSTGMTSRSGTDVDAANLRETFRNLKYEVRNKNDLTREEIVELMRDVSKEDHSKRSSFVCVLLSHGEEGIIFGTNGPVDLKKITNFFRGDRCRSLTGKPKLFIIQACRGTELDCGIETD
# Chain of Caspase-3 (Homo sapiens) (P42574 176-277 limits assumed): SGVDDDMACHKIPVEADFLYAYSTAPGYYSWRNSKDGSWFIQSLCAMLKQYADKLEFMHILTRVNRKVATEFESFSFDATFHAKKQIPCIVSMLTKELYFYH
# [33] = molecular target: Alpha-2C adrenergic receptor (Homo sapiens) (UniProt P18825); settings: Compound concentration 10.0 uM
# [34] = molecular target: 5-hydroxytryptamine receptor 1E (Homo sapiens) (UniProt P28566); settings: Compound concentration 10.0 uM
# [35] = molecular target: TGF-beta receptor type-1 (Homo sapiens) (UniProt P36897); settings: Compound concentration 1000.0 nM
# Chain of Somatostatin receptor type 3 (Homo sapiens) (P32745 whole entry): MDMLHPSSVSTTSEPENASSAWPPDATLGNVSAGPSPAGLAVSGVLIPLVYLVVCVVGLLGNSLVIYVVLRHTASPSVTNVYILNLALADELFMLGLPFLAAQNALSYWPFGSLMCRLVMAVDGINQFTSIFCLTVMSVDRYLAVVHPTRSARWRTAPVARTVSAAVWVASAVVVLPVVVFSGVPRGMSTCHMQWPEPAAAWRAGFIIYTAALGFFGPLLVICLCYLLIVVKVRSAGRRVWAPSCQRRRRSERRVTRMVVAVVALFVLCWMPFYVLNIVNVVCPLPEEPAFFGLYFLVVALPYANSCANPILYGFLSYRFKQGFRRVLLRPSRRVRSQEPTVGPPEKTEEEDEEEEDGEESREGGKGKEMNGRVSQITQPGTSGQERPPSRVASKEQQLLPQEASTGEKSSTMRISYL
compound,measurement,setting,value
N#CC1(c2ccccn2)CCN(Cc2cc(C(=O)O)c(=O)n3ccccc23)CC1 [MSD-M1PAM],inhibition,[1],2%
same,inhibition,[2],15%
same,inhibition,Rattus norvegicus [3],33%
same,inhibition,[4],11%
same,inhibition,Homo sapiens [5],0%
same,inhibition,[6],10%
same,inhibition,[7],34%
same,inhibition,[8],-8.07%
same,"inhibition at 60 min, 10 µM",[9],4% (not active)
same,inhibition,Rattus norvegicus [10],-10%
same,inhibition,[11],-3%
same,inhibition,[12],2%
same,inhibition,[13],-6%
same,Ki,[14],10 µM
same,inhibition,[15],9%
same,inhibition,[16],8%
same,inhibition,Caspase-7 (Homo sapiens),5%
same,inhibition,[17],3%
same,inhibition,[18],22%
same,inhibition,Homo sapiens [19],-3%
same,inhibition,Homo sapiens [20],8%
same,inhibition,[21],-7%
same,inhibition,[22],25%
same,inhibition,[23],2%
same,inhibition,Homo sapiens [24],21%
same,inhibition,[25],12%
same,inhibition,[26],28%
same,inhibition,[27],-4%
same,inhibition,Rattus norvegicus [28],9%
same,inhibition,[29],0%
same,inhibition,[30],-7%
same,inhibition,[31],-6%
same,inhibition,[32],0%
same,inhibition,Caspase-3 (Homo sapiens),6%
N#CC1(c2ccccn2)CCN(Cc2cc(C(=O)N3CCCC3)c(=O)n3ccccc23)CC1,inhibition,[33],1.13%
same,inhibition,[34],-3.26%
same,residual activity,[35],72%

# From ChEMBL document CHEMBL4507295 (2021)
